Assay results published in paper PMC2692895 (Journal of medicinal chemistry, 2008).
Like-named read-outs stand apart in the source and are kept apart here.

Assays:
[1] = Drug metabolic stability, S9 fraction with NADPH; assay type: in vitro ADME
Permeability by PAMPA = assay type: in vitro ADME
[2] = system: caspase-3 activation in MDA-MB-231 cells; test: Caspase-3 activation; conditions: MDA-MB-231, 24 hours
[3] = system: MDA-MB-231 breast cancer cell lines; conditions: cited from earlier work
MDA-MB-231 cells = test: ATPLite cell viability, compound 3 and TRAIL alone or combined; assay type: cell-based, human; conditions: low concentrations up to 110 ng/mL, 20 hours

CN[C@@H](C)C(=O)Nc1ccc(Oc2ccc(OC)cc2)c(C(=O)NCc2csc(-c3cccs3)n2)c1 [Compound 3, (S)-2-(4-methoxyphenoxy)-5-(2-(methylamino)propanamido)-N-((2-(thiophen-2-yl)thiazol-4-yl)methyl)benzamide]
half-life [1]: 14.5 min
Permeability (2 %), class (Permeability by PAMPA): High
caspase-3 activation [2]: increases caspase-3 activation

COc1cc([C@@H]2c3cc4c(cc3[C@@H](O[C@@H]3O[C@@H]5CO[C@@H](C)O[C@H]5[C@H](O)[C@H]3O)[C@H]3COC(=O)[C@H]23)OCO4)cc(OC)c1O [etoposide, reference compound]
DNA fragmentation ([3]; etoposide 5 µM): no obvious DNA fragmentation

B1: TRAIL: tumor necrosis factor-related apoptosis-inducing ligand (Genentech) (protein, UniProt P50591 1-281, looked up)
Tumor necrosis factor ligand …: MAMMEVQGGPSLGQTCVLIVIFTVLLQSLCVAVTYVYFTNELKQMQDKYSKSGIACFLKEDDSYWDPNDEESMNSPCWQVKWQLRQLVRKMILRTSEETISTVQEKQQNISPLVRERGPQRVAAHITGTRGRSNTLSSPNSKNEKALGRKINSWESSRSGHSFLSNLHLRNGELVIHEKGFYYIYSQTYFRFQEEIKENTKNDKQMVQYIYKYTSYPDPILLMKSARNSCWSKDAEYGLYSIYQGGIFELKENDRIFVSVTNEHLIDMDHEASFFGAFLVG
induction of tumor cell death, TRAIL alone (MDA-MB-231 cells): very little effects
DNA fragmentation ([3]; TRAIL 30 ng/ml): no obvious DNA fragmentation
